In publication PMC8151276, “An Integrated Approach toward NanoBRET Tracers for Analysis of GPCR Ligand Engagement” (Molecules, 2021):

Columns and labels:
Type in all cases: binding
[1] = molecular target: T1, CXCR3 (Homo sapiens, UniProt P49682); experiment: NanoBRET screen HiBiT-CXCR3 in HEK293
T1 construct: purchased Promega (in-house HiBiT-GPCR construct library, NanoBRET)
T1 sequence (P49682 1-368): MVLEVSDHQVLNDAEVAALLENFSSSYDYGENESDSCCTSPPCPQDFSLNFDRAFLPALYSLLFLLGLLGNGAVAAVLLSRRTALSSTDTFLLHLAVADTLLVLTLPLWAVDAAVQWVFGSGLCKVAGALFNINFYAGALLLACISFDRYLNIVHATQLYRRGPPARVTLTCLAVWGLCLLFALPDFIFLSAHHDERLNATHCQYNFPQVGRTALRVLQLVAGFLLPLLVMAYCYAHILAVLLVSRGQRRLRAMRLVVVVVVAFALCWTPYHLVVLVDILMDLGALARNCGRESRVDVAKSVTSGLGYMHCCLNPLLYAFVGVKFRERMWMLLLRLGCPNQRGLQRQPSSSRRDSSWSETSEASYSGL
Experimental: (§1) Each tracer candidate was screened across the entire library of HiBiT-GPCR constructs using NanoBRET as the detection modality. As depicted in Figure 4A, the specificity of interactions was evaluated through decrease in BRET due to competitive displacement of a bound tracer by excess parental compound. Each tracer was analyzed for binding to each HiBiT-GPCR fusion in the absence and in the presence of competing parental compound. Briefly, HEK293 cells were transfected with HiBiT-GPCR constructs diluted into promoterless DNA to reduce expression and maximize translocation to the cell surface. Each tracer candidate was then screened at concentrations of 1 μM and 0.1 μM across cells expressing these fusions. Cells were treated for 1.5 h with tracer either alone or in the presence of 20 μM competing parental compound (i.e., control). BRET was measured upon addition of purified LgBiT and subsequent complementation with HiBiT genetically fused to a GPCR. The specificity of interactions was assessed through a decrease in BRET signal due to competitive displacement of the bound tracer. To further gauge the robustness of these interactions, the fold response over the control (i.e., BRETtracer/BRETcontrol) was calculated. We chose a 1.5-fold response, which translates to ≥7-fold signal over noise as the minimal threshold required to score an interaction as positive. […]. Below we highlight the screening results obtained for our exemplary fluorescent tracers based on Clozapine, Amitriptyline and AZD1283.
(§2) HiBiT-GPCR DNA constructs were diluted in 10 mM Tris pH 8 to a final concentration of 0.01 μg/μL, arrayed in 96-well plates and stored at −20 °C. For transfection, HEK293 cells were suspended in Opti-MEM (without phenol red) supplemented with 2% fetal bovine serum (Seradigm) and 100 units/mL penicillin–streptomycin (Gibco) at a final concentration of 220,000 cells/mL and dispensed into white 96-well plates at 90 μL/well. Subsequent transfections and screens were carried using an Agilent Bravo Automated Liquid Handling Platform. First, the 96-well HiBiT DNA arrays were diluted 25-fold in Opti-MEM (without serum or phenol red) to a final concentration of 0.0004 μg/μL and 20 μL of the diluted DNAs were transferred into new 96-well plates. Next, promoterless carrier DNA (1 μg/μL) was diluted 25-fold (0.04 μg/μL) and then dispensed into the diluted arrays at 20 μL/well. Following brief mixing, Viafect transfection reagent (Promega) diluted 16-fold into Opti-MEM was dispensed into the plates at 40 μL/well. After mixing by pipetting, plates were incubated for 10 min on the pipetting station deck. The DNA-transfection reagent complexes were then added to plates containing cells. To facilitate the screen, 10 μL of DNA-transfection reagent complexes were added in duplicates to the top 4 and bottom 4 rows, resulting in two identical 48-well arrays per plate. Plates with transfected cells were incubated for 18–20 h at 37 °C/5% CO2. A screen of each tracer across the entire library using two different concentrations requires duplicate plates of transfected cells. Depending on the number of tracers being screened, transfections can be scaled up using the same ratios. The next day, for each tracer, four 20× screening solutions in tracer dilution buffer (Promega) were prepared: two duplicates at final concentration of 20 μM and two duplicates at a final concentration of 2 μM. A competing unmodified compound was added to one of each duplicate at a final concentration of 400 μM. The four resulting solutions were diluted 4-fold in Opti-MEM without serum or phenol red to generate 5× solutions (5 µM and 0.5 µM tracer +/− 100 μM competing compound). To screen the library, a BioTek MultiFlo FX liquid dispenser was used to dispense 22.5 µL of tracer solution to the top 4 rows and 22.5 µL tracer + competing compound solution to the 4 bottom rows. Plates were briefly mixed on an orbital shaker and incubated for 1.5 h at room temperature. […]

[2] = molecular target: T2, HTR1D (Homo sapiens, UniProt P28221); experiment: NanoBRET screen HiBiT-HTR1D in HEK293
T2 construct: purchased Promega (in-house HiBiT-GPCR construct library, NanoBRET)
Experimental: as §1, §2

[3] = molecular target: T3, VIPR1 (Homo sapiens, UniProt P32241); experiment: NanoBRET screen HiBiT-VIPR1 in HEK293
T3 construct: purchased Promega (in-house HiBiT-GPCR construct library, NanoBRET)
T3 sequence (P32241 31-457): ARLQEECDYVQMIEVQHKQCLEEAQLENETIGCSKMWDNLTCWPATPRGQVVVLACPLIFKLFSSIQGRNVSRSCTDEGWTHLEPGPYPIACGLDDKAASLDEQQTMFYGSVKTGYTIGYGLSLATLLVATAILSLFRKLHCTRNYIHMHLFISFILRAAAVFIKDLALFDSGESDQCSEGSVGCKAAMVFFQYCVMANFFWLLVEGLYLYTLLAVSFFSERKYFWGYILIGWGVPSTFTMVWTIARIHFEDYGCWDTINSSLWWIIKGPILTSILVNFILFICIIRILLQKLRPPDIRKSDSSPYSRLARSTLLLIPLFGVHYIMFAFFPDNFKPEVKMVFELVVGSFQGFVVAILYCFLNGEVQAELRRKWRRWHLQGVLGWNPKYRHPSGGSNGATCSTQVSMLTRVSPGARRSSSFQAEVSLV
Experimental: as §1, §2

[4] = molecular target: T4, BDKRB2 (Homo sapiens, UniProt P30411); experiment: NanoBRET screen HiBiT-BDKRB2 in HEK293
T4 construct: purchased Promega (in-house HiBiT-GPCR construct library, NanoBRET)
T4 sequence (P30411 1-391): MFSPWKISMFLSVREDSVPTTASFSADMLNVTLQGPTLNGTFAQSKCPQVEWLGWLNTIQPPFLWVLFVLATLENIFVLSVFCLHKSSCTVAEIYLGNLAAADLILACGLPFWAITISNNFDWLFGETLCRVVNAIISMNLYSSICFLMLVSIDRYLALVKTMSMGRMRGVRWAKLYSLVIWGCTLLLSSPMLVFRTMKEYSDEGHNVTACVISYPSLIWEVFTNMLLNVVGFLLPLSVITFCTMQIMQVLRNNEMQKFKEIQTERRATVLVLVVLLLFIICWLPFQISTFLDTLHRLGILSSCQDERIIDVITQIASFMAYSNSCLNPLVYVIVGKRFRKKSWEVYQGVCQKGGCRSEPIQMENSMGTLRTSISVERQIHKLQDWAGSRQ
Experimental: as §1, §2

[5] = molecular target: T5, OPRK1 (Homo sapiens, UniProt P41145); experiment: NanoBRET screen HiBiT-OPRK1 in HEK293
T5 construct: purchased Promega (in-house HiBiT-GPCR construct library, NanoBRET)
How it was run: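 Read-out: NanoBRET after LgBiT complementation of cell-surface HiBiT-GPCR in transfected HEK293 cells. Tracer (1 μM, 0.1 μM) incubated 1.5 h, alone or with 20 μM competing unmodified compound; response is BRETtracer/BRETcontrol, with ≥1.5-fold scored as positive binding.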

[6] = tracer at 0.1μM, listed as amitriptyline-b-2-NB590
[7] = tracer at 1μM, listed as amitriptyline-b-2-NB590

T5 sequence (P41145 whole entry): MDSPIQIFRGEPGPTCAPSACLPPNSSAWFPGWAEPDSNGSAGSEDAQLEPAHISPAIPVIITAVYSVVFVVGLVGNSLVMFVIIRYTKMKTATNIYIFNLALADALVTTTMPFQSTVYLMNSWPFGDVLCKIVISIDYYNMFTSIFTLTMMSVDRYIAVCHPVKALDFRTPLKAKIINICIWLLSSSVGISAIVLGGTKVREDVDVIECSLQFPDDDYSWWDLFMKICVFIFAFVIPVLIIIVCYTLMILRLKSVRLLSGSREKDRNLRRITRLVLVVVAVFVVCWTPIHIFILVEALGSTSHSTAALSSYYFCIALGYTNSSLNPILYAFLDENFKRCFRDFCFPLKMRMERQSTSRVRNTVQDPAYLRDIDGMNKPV
T2 sequence (P28221 whole entry): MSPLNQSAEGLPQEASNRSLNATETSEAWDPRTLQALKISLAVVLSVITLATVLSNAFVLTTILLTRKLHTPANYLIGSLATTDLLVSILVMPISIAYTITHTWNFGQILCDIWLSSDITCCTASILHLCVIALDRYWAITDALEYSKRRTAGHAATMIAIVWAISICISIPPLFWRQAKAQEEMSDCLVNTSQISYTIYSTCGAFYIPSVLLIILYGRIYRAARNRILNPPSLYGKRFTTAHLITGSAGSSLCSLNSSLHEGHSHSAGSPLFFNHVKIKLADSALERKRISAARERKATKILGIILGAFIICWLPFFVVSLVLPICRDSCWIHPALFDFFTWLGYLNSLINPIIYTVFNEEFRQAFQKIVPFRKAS

SMILES	NanoBRET Fold Response ([1]; CXCR3, tracer 0.1μM)	NanoBRET Fold Response ([1]; CXCR3, tracer 1μM)	NanoBRET Fold Response ([2]; HTR1D, tracer 0.1μM)	NanoBRET Fold Response ([2]; HTR1D, tracer 1μM)	NanoBRET Fold Response ([3]; VIPR1, tracer 0.1μM)	NanoBRET Fold Response ([3]; VIPR1, tracer 1μM)	NanoBRET Fold Response ([4]; BDKRB2, tracer 0.1μM)	NanoBRET Fold Response ([4]; BDKRB2, tracer 1μM)	NanoBRET Fold Response ([5]; OPRK1, tracer 0.1μM)	NanoBRET Fold Response ([5]; OPRK1, tracer 1μM)	other results
CC(C)N(CC[C@H](c1ccccc1)c1cc(CCNC(=O)c2ccc(CNC(=O)CCc3ccc4n3[B-](F)(F)[N+]3=C(c5ccc[nH]5)C=CC3=C4)cc2)ccc1O)C(C)C [Tolterodine-BZ-NB590]	1.11	0.96	1.27	0.92	0.97	0.98	1.04	1.08	0.90	0.96	–
O=C(CCc1ccc2n1[B-](F)(F)[N+]1=C(c3ccc[nH]3)C=CC1=C2)NCCOCCOCCNC(=O)OCCOCCN1CCN(C2=Nc3ccccc3Sc3ccccc32)CC1 [Quetiapine-a-2-NB590]	1.00	1.14	1.02	1.32	1.03	0.92	1.11	0.81	0.94	0.97	–
Cc1cc2c(s1)Nc1ccccc1N=C2N1CCN(CCCNC(=O)CCOCCOCCOCCOCCNC(=O)CCc2ccc3n2[B-](F)(F)[N+]2=C(c4ccc[nH]4)C=CC2=C3)CC1 [Olanzapine-a-2-NB590]	1.05	0.89	1.03	1.29	1.06	1.04	0.97	1.06	0.92	1.16	–
CN(C)CCC=C1c2ccccc2CCc2ccc(C(=O)NCCNC(=O)CCOCCOCCOCCOCCNC(=O)CCc3ccc4n3[B-](F)(F)[N+]3=C(c5ccc[nH]5)C=CC3=C4)cc21 [Amitriptyline-b-2-NB590]	–	–	–	–	–	–	–	–	–	–	NanoBRET Fold Response [1, 6]: 1.05; NanoBRET Fold Response [1, 7]: 0.98; NanoBRET Fold Response [2, 6]: 1.43; NanoBRET Fold Response [2, 7]: 0.74; NanoBRET Fold Response [3, 6]: 0.98; NanoBRET Fold Response ([3]; tracer at 1μM): 0.96; NanoBRET Fold Response [4, 6]: 1.05; NanoBRET Fold Response [4, 7]: 1.12; NanoBRET Fold Response [5, 6]: 1.23; NanoBRET Fold Response [5, 7]: 1.23
O=C(CCOCCOCCOCCOCCNC(=O)CCc1ccc2n1[B-](F)(F)[N+]1=C(c3ccc[nH]3)C=CC1=C2)NCCCN1CCN(C2=Nc3cc(Cl)ccc3Nc3ccccc32)CC1 [Clozapine-a-2-NB590]	–	–	–	–	–	–	–	–	–	–	NanoBRET Fold Response ([1]; CXCR3, 0.1μM tracer): 1.02; NanoBRET Fold Response ([1]; CXCR3, 1μM tracer): 1.22; NanoBRET Fold Response ([2]; HTR1D, 0.1μM tracer): 1.21; NanoBRET Fold Response ([2]; HTR1D, 1μM tracer): 1.67; NanoBRET Fold Response ([3]; VIPR1, 0.1μM tracer): 0.98; NanoBRET Fold Response ([3]; VIPR1, 1μM tracer): 1.10; NanoBRET Fold Response ([4]; BDKRB2, 0.1μM tracer): 1.02; NanoBRET Fold Response ([4]; BDKRB2, 1μM tracer): 1.13; NanoBRET Fold Response ([5]; OPRK1, 0.1μM tracer): 1.01; NanoBRET Fold Response ([5]; OPRK1, 1μM tracer): 0.97
CN1CCN(C2=Nc3cc(Cl)ccc3Nc3ccc(CNC(=O)CCOCCOCCOCCOCCNC(=O)CCc4ccc5n4[B-](F)(F)[N+]4=C(c6ccc[nH]6)C=CC4=C5)cc32)CC1 [Clozapine-b-2-NB590]	–	–	–	–	–	–	–	–	–	–	NanoBRET Fold Response ([1]; CXCR3, 0.1μM tracer): 0.97; NanoBRET Fold Response ([1]; CXCR3, 1μM tracer): 0.94; NanoBRET Fold Response ([2]; HTR1D, 0.1μM tracer): 1.08; NanoBRET Fold Response ([2]; HTR1D, 1μM tracer): 1.48; NanoBRET Fold Response ([3]; VIPR1, 0.1μM tracer): 1.12; NanoBRET Fold Response ([3]; VIPR1, 1μM tracer): 0.99; NanoBRET Fold Response ([4]; BDKRB2, 0.1μM tracer): 1.00; NanoBRET Fold Response ([4]; BDKRB2, 1μM tracer): 1.00; NanoBRET Fold Response ([5]; OPRK1, 0.1μM tracer): 0.99; NanoBRET Fold Response ([5]; OPRK1, 1μM tracer): 0.96
Cc1nc2n(c(=O)c1CCN1CCC(c3noc4cc(F)ccc34)CC1)CCCC2OC(=O)NCCOCCOCCOCCOCCNC(=O)CCc1ccc2n1[B-](F)(F)[N+]1=C(c3ccc[nH]3)C=CC1=C2 (stereo not shown) [Risperidone-2-NB590]	1.06	0.91	1.38	1.86	0.98	1.10	0.92	0.96	0.96	0.99	–
